Results reported in ChEMBL document CHEMBL5360581, “Discovery of a novel dual functional phenylpyrazole-styryl hybrid that induces apoptotic and autophagic cell death in bladder cancer cells” (Eur J Med Chem, 2023).
The source made the active and inactive calls. The rule behind the calls is not given here.

Tests used:
EJ-28 [1] = assay: Antiproliferative activity against human EJ-28 cells assessed as reduction in cell viability at 20 uM measured for 72 hrs by MTT assay; format: functional, cell-based
MCF7 [2] = assay: Antiproliferative activity against human MCF7 cells assessed as reduction in cell viability at 20 uM measured for 72 hrs by MTT assay; format: functional, cell-based
[3] = Selectivity index, ratio of IC50 for cytotoxicity against human NHDF cells to IC50 for cytotoxicity against human HT-1080 cells
SW-620 [4] = assay: Antiproliferative activity against human SW620 cells assessed as reduction in cell viability at 20 uM measured for 72 hrs by MTT assay; format: functional, cell-based
[5] = Selectivity index, ratio of IC50 for cytotoxicity against human NHDF cells to IC50 for cytotoxicity against human SW620 cells
SW-620 [6] = assay: Cytotoxicity against human SW620 cells assessed inhibition of cell growth incubated for 72 hrs by MTT assay; format: functional, cell-based; settings: SW-620, 72 h
MCF7 [7] = assay: Cytotoxicity against human MCF7 cells assessed inhibition of cell growth incubated for 72 hrs by MTT assay; format: functional, cell-based; settings: MCF7, 72 h
[8] = Selectivity index, ratio of IC50 for cytotoxicity against human NHDF cells to IC50 for cytotoxicity against human A549 cells; format: toxicity, cell-based; settings: NHDF cells and A549 cells, read-out: Ratio IC50
[9] = Selectivity index, ratio of IC50 for cytotoxicity against human NHDF cells to IC50 for cytotoxicity against human MCF7 cells; format: toxicity, cell-based; settings: NHDF cells and MCF7 cells, read-out: Ratio IC50
[10] = Selectivity index, ratio of IC50 for cytotoxicity against human NHDF cells to IC50 for cytotoxicity against human EJ-28 cells
EJ-28 [11] = assay: Cytotoxicity against human EJ-28 cells assessed inhibition of cell growth incubated for 72 hrs by MTT assay; format: functional, cell-based; settings: EJ-28, 72 h
HT-1080 [12] = assay: Cytotoxicity against human HT-1080 cells assessed inhibition of cell growth incubated for 72 hrs by MTT assay; format: functional, cell-based; settings: HT-1080, 72 h
[13] = Cytotoxicity against human NHDF cells assessed inhibition of cell growth incubated for 72 hrs by MTT assay; format: toxicity, cell-based
A549 [14] = assay: Antiproliferative activity against human A549 cells assessed as reduction in cell viability at 20 uM measured for 72 hrs by MTT assay; format: functional, cell-based
HT-1080 [15] = assay: Antiproliferative activity against human HT-1080 cells assessed as reduction in cell viability at 20 uM measured for 72 hrs by MTT assay; format: functional, cell-based
A549 [16] = assay: Cytotoxicity against human A549 cells assessed inhibition of cell growth incubated for 72 hrs by MTT assay; format: functional, cell-based; settings: A549, 72 h

| Structure (SMILES) | Activity (EJ-28 [1]) | Activity (MCF7 [2]) | Ratio IC50 [3] | Activity (SW-620 [4]) | Ratio IC50 [5] | IC50 (SW-620 [6]) [µM] | IC50 (MCF7 [7]) [µM] | selectivity ratio [8] | selectivity ratio [9] | Ratio IC50 [10] | IC50 (EJ-28 [11]) [µM] | IC50 (HT-1080 [12]) [µM] | IC50 at 72 h [13] [µM] | Activity (A549 [14]) | Activity (HT-1080 [15]) | IC50 (A549 [16]) [µM] |
| --- | --- | --- | --- | --- | --- | --- | --- | --- | --- | --- | --- | --- | --- | --- | --- | --- |
| COc1ccc(/C=C/c2cc(-c3cc(Cl)ccc3O)n(-c3ccccc3)n2)cc1 | Active | Active | 2.2 | Active | 2.2 | 19.8 | 12.1 | 2.2 | 2.2 | 2.2 | 14.3 | 17.2 | 47 | Active | Active | 20.9 |
| Cc1ccc(/C=C/c2cc(-c3cc(Cl)ccc3O)n(-c3ccccc3)n2)s1 | Active | Active | 1.7 | Active | 1.7 | 23 | 11.1 | 1.7 | 1.7 | 1.7 | 8.6 | 21.7 | 39.4 | Active | Active | 22.7 |
| Oc1ccc(Cl)cc1-c1cc(/C=C/c2cccs2)nn1-c1ccccc1 | Active | Active | 2 | Active | 2 | 19 | 5.5 | 2 | 2 | 2 | 11.6 | 19.6 | 39.6 | Active | Active | 17.1 |
| COc1ccc(/C=C/c2cc(-c3ccccc3O)n(-c3ccccc3)n2)cc1 | Active | Active | >2.4 | Active | >2.4 | 7.9 | 13 | > 2.4 | > 2.4 | >2.4 | 12.9 | 14.7 | > 50 | Active | Active | 20.8 |
| COc1cccc(/C=C/c2cc(-c3ccccc3O)n(-c3ccccc3)n2)c1 | Active | Active | >2.2 | Active | >2.2 | 22.1 | 16.2 | > 2.2 | > 2.2 | >2.2 | 14.3 | 20 | > 50 | Active | Active | 22.8 |
| Oc1ccc(Cl)cc1-c1cc(/C=C/c2ccccc2Cl)nn1-c1ccccc1 | Active | Active | 0.9 | Active | 1.5 | 9.5 | 5.7 | 1.5 | 0.9 | 1.5 | 5.1 | 10.9 | 19.7 | Active | Active | 13.2 |
| Oc1ccc(Cl)cc1-c1cc(/C=C/c2ccc(Cl)cc2)nn1-c1ccccc1 | Active | Active | 2 | Active | 2 | 16.6 | 10.6 | 2 | 2 | 2 | 6.5 | 17.4 | 42.9 | Active | Active | 21.5 |
| Oc1ccccc1-c1cc(/C=C/c2ccc(Cl)c(Cl)c2)nn1-c1ccccc1 | Active | Active | 2 | Active | 2 | 18.6 | 18.1 | 2 | 2 | 2 | 15.9 | 22.2 | 43.5 | Active | Active | 21.5 |
| O=[N+]([O-])c1cccc(/C=C/c2cc(-c3ccccc3O)n(-c3ccccc3)n2)c1 | Active | Active | 2 | Active | 2 | 9.7 | 15 | 2 | 2 | 2 | 7.4 | 16.5 | 42.9 | Active | Active | 21.7 |
| COc1ccc(/C=C/c2cc(-c3ccccc3O)n(-c3ccccc3)n2)cc1OC | Active | Active | >2.6 | Active | >2.6 | 18.5 | 13 | > 2.6 | > 2.6 | >2.6 | 18.6 | 15.9 | > 50 | Active | Active | 19.2 |
| COc1ccc(/C=C/c2cc(-c3cc(Cl)ccc3O)n(-c3ccccc3)n2)cc1OC | Active | Active | 2.5 | Active | 2.5 | 16.1 | 9.6 | 2.5 | 2.5 | 2.5 | 17.6 | 14.5 | 39.9 | Active | Active | 15.3 |
| Oc1ccccc1-c1cc(/C=C/c2ccc(Cl)cc2)nn1-c1ccccc1 | Active | Active | 1.5 | Active | 1.5 | 16.5 | 15.2 | 1.5 | 1.5 | 1.5 | 13.4 | 15.8 | 40.5 | Active | Active | 26.3 |
| Oc1ccc(Cl)cc1-c1cc(/C=C/c2ccc(Cl)s2)nn1-c1ccccc1 | Active | Active | 1.4 | Active | 1.4 | 10.4 | 8.7 | 1.4 | 1.4 | 1.4 | 10.1 | 13.5 | 19.2 | Active | Active | 13.3 |
| COc1cc(/C=C/c2cc(-c3ccccc3O)n(-c3ccccc3)n2)cc(OC)c1OC | Active | Active | >3.4 | Active | >3.4 | 7.6 | 10.4 | > 3.4 | > 3.4 | >3.4 | 12.3 | 14.1 | > 50 | Active | Active | 14.6 |
| Oc1ccccc1-c1cc(/C=C/c2cccc(Cl)c2)nn1-c1ccccc1 | Active | Active | 1.6 | Active | 1.6 | 11.6 | 10.9 | 1.6 | 1.6 | 1.6 | 8.9 | 13.8 | 39.4 | Active | Active | 24.3 |
| O=c1[nH]cc(F)c(=O)[nH]1 [FLUOROURACIL] |  |  | 1.5 |  | 1.5 | 32.5 |  |  |  | 1.5 | 11.4 | 6 | > 50 |  |  | 7.6 |
| Cc1ccc(/C=C/c2cc(-c3ccccc3O)n(-c3ccccc3)n2)s1 | Active | Active | 1.1 | Active | 1.1 | 16.2 | 12.6 | 1.1 | 1.1 | 1.1 | 11 | 14.2 | 17.9 | Active | Active | 14.5 |
